For data set [1], the system named is Staphylococcus aureus ATCC25923. In words: Antimicrobial MIC, agar dilution.
Data set [2] concerns Streptococcus pyogenes ATCC19615. In words: Antimicrobial MIC, agar dilution.
Data set [3] relates to A-549 (lung) carcinoma cell line. Briefly: Anti-tumor properties, MTT. It is filed as cell-based. The conditions noted are these: Homo sapiens, A549.
The test system of data set [4] is Candida albicans (local isolate). Briefly: Antimicrobial MIC, agar dilution. As to conditions: Candida albicans, read-out: Minimum inhibitory concentration (MIC).
The subject of data set [5] is lipopolysaccharide-stimulated peritoneal macrophages. Briefly: Production of nitric oxide by lipopolysaccharide-stimulated peritoneal macrophages (Greiss reagent). Type of data set: cell-based. More on the design: Potency (%): % inhibition of nitric oxide production relative to lipopolysaccharide-stimulated macrophages: concentration or dose not given beside the values. As to conditions: LPS-stimulated peritoneal macrophages; for Nitric oxide (nitrite) concentration, μM (average ± SD): 24 h, nitrite by Greiss reagent. Summed up:
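Macrophages in nitrite-free medium with 0.1% BSA were stimulated with LPS at 0.5–10 ng/ml, some wells also receiving epinephrine, norepinephrine or dopamine at […], for 24 h at 37° C. Nitrite in supernatants was measured with Greiss reagent, 15 min at room temperature, absorbance 532 nm.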

Data set [6] relates to Salmonella typhi ATCC19430. In words: Antimicrobial MIC, agar dilution. Type of data set: cell-based. The conditions noted are these: Salmonella enterica, read-out: Minimum inhibitory concentration (MIC).
Data set [7] deals with Pseudomonas aeruginosa ATCC27853. Briefly: Antimicrobial MIC, agar dilution.
Data set [8] relates to PHA-stimulated splenocytes. In words: Proliferative response of PHA-stimulated splenocytes (MTT assay). It is filed as cell-based. As to conditions: PHA 5 μg/ml, 72 hr; compounds at 5 μM (method says 10 μM); ratio of O.D. versus vehicle control. In short, it runs like this:
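Freshly prepared splenocytes (1×10^6 cells/well) were cultured for 72 h at 37° C with compound at 10 μM final, with or without PHA (5 μg/ml). Viability was read by MTT (4 h), with absorbance at 570 nm against 690 nm reference. Stimulation index is the OD ratio of treated versus vehicle cultures.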

A further data set relates to gastric mucosa. Briefly: Ulcerogenic liability (ulcer index). It is filed as in vivo, albino mice. The conditions noted are these: orally, three successive days, 10 mg/kg indomethacin mol equivalent; for Number of animals with ulcer: 6 animals per group; for Ulcer index: sum of the three values. In short, it runs like this: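 Albino mice were fasted 18 h before dosing, and controls got saline with a few drops of Tween 80. Gastric mucosa was checked under a 10× lens for lesions and erosions. The ulcer index combines percentage incidence divided by 10, mean ulcers per stomach and mean severity.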

Data set [9] relates to HCT116 (colon) carcinoma cell line. In words: Anti-tumor properties, MTT. It is filed as cell-based. As to conditions: Homo sapiens, HCT-116; read-out: IC50 (μM) HCT116 (colon). Summed up: (§1)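 Cells seeded at 10×10^3 per well for 24 h, then exposed to compound in serum-free medium (final up to 100 μM, 0.5% DMSO vehicle) for 72 h in triplicate. Viability by MTT reduction (4 h, SDS solubilised), absorbance 595 nm/ref 620 nm; IC50 from survival curves.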

Data set [10] has as its system HepG2 (hepatocellular) carcinoma cell line. Briefly: Anti-tumor properties, MTT. Type of data set: cell-based. The conditions noted are these: Homo sapiens, HepG2; read-out: IC50 (μM) HepG2 (liver). Summed up: as §1
The subject of data set [11] is MCF7 (breast) carcinoma cell line. Briefly: Anti-tumor properties, MTT. Type of data set: cell-based. The conditions noted are these: Homo sapiens, MCF7; read-out: IC50 (μM) MCF7 (breast). In short, it runs like this:
as §1

The test system of data set [12] is PC3 (prostate) carcinoma cell line. In words: Anti-tumor properties, MTT. Type of data set: cell-based. As to conditions: Homo sapiens.
The mark [13] stands for this setting: ATCC25923, 18 h, read-out: Minimum inhibitory concentration (MIC).
Where [14] appears, read: ATCC25923, read-out: Minimum inhibitory concentration (MIC).
[15] abbreviates: ATCC19615, 18 h, read-out: Minimum inhibitory concentration (MIC).
Setting [16] is: ATCC19615, read-out: Minimum inhibitory concentration (MIC).
[17] abbreviates: ATCC27853, 18 h, read-out: Minimum inhibitory concentration (MIC).
Where [18] appears, read: ATCC27853, read-out: Minimum inhibitory concentration (MIC).

Where two headings read alike, the source gives them in different places. A value given as a limit tells only on which side of the number the result lay.

For the compound `COc1cc(/C=C/C(=O)CC(=O)/C=C/c2ccc(OC(=O)[C@@H](C)N)c(OC)c2)ccc1OC(=O)[C@@H](C)N.Cl.Cl` [HCl-D-Ala-Cur, (2R,2′R)-1,1′-((((1E,6E)-3,5-dioxohepta-1,6-diene-1,7-diyl)bis(2-methoxy-4,1-phenylene))bis(oxy))bis(1-oxopropan-2-aminium) chloride], the MIC in [1] (setting [13]) stood at 0.125 µg/mL; in data set [1] (setting [14]) it was 0.214 µM; in data set [2] (setting [15]), 0.25 µg/mL; in data set [2] (setting [16]), 0.428 µM; in data set [4] (18 h), 0.125 µg/mL; in data set [4], 0.214 µM. Also, the MIC came out at 0.25 µg/mL in [6] (18 h), 0.428 µM in data set [6], 1 µg/mL in [7] (setting [17]) and 1.71 µM in data set [7] (setting [18]). The IC50 in data set [3] was 30.9 µM; in data set [9], 39.2 µM; in data set [10] it was 34.3 µM; in data set [11], 10.4 µM; in [12], 30.7 µM. Also, the “Potency (%): % inhibition of nitric oxide production relative to lipopolysaccharide-stimulated macrophages” value in [5] was determined as 41.26%. Moreover, the “Nitric oxide (nitrite) concentration, μM (average ± SD)” value (from here on “Nitric oxide … (average ± SD)”) in data set [5] was 16.04 ± 0.46 µM. For the same compound, the “Stimulation Index (average ± SD)” value in data set [8] is 1.35 ± 0.07. The “% Incidence of ulcer divided by 10” value with gastric mucosa turned out to be 0. The “Average of ulcer number” value in the data set on gastric mucosa worked out at 0. Besides, the “Average severity of ulcer” value in the data set on gastric mucosa is recorded as 0. Moreover, the “Number of animals with ulcer” value in the data set on gastric mucosa is given as 0/6. Also, in the data set on gastric mucosa, the Ulcer index is reported as 0.

`COc1cc(/C=C/C(=O)CC(=O)/C=C/c2ccc(OC(=O)CCN)c(OC)c2)ccc1OC(=O)CCN.Cl.Cl` [HCl-β-Ala-Cur, 3,3′-((((1E,6E)-3,5-dioxohepta-1,6-diene-1,7-diyl)bis(2-methoxy-4,1-phenylene))bis(oxy))bis(3-oxopropan-1-aminium) chloride]: the MIC in data set [1] (setting [13]) amounted to 1 µg/mL; in data set [1] (setting [14]), 1.71 µM; in data set [2] (setting [15]), 1 µg/mL; in data set [2] (setting [16]), 1.71 µM; in data set [4] (18 h), 0.5 µg/mL; in data set [4], 0.857 µM. For the same compound, the MIC in data set [6] (18 h) came out at 1 µg/mL; in data set [6], 1.71 µM; in [7] (setting [17]), 1 µg/mL; in data set [7] (setting [18]), 1.71 µM. In addition, the IC50 was determined as 32.4 µM in data set [3]; 42.3 µM in data set [9]; 36.4 µM in data set [10]; 9.36 µM in [11]; 30.2 µM in data set [12]. Also, the “Potency (%): % inhibition of nitric oxide production relative to lipopolysaccharide-stimulated macrophages” value in data set [5] was determined as 41.68%. In addition, in data set [5], the “Nitric oxide … (average ± SD)” value is 15.93 ± 0.29 µM. In data set [8], the “Stimulation Index (average ± SD)” value was found to be 1.39 ± 0.98. For the same compound, the “% Incidence of ulcer divided by 10” value in the data set with gastric mucosa came to 0. In the data set with gastric mucosa, the “Average of ulcer number” value is reported as 0. Besides, in the data set with gastric mucosa, the “Average severity of ulcer” value came to 0. Further, the “Number of animals with ulcer” value with gastric mucosa was 0/6. Also, the Ulcer index with gastric mucosa was 0.

As for `COc1cc(/C=C/C(=O)CC(=O)/C=C/c2ccc(OC(=O)[C@H](CCSC)NC(=O)OC(C)(C)C)c(OC)c2)ccc1OC(=O)[C@H](CCSC)NC(=O)OC(C)(C)C` [Boc-L-Met-Cur, ((1E,6E)-3,5-dioxohepta-1,6-diene-1,7-diyl)bis(2-methoxy-4,1-phenylene) (2S,2′S)-bis(2-((tert-butoxycarbonyl)amino)-4-(methylthio)butanoate)], the MIC in [1] (setting [13]) was 2 µg/mL; in data set [1] (setting [14]), 2.41 µM; in data set [2] (setting [15]) it was 2 µg/mL; in [2] (setting [16]) it was 2.41 µM; in [4] (18 h) it was 1 µg/mL; in data set [4], 1.2 µM. In addition, the MIC in data set [6] (18 h) amounted to 2 µg/mL; in data set [6] it was 2.41 µM; in data set [7] (setting [17]), 1 µg/mL; in data set [7] (setting [18]) it was 1.2 µM. Further, the half-inhibitory concentration (IC50) in [3] was > 100 µM; in [9], > 100 µM; in data set [10] it was > 100 µM; in data set [11], 36.3 µM; in data set [12], > 100 µM. The “Potency (%): % inhibition of nitric oxide production relative to lipopolysaccharide-stimulated macrophages” value in data set [5] is 40.84%. The “Nitric oxide … (average ± SD)” value in data set [5] turned out to be 16.16 ± 0.64 µM. The “Stimulation Index (average ± SD)” value in data set [8] is on record as 1.37 ± 0.10. In addition, the “% Incidence of ulcer divided by 10” value with gastric mucosa is given as 0. The “Average of ulcer number” value with gastric mucosa is recorded as 0. Further, the “Average severity of ulcer” value with gastric mucosa is 0. The “Number of animals with ulcer” value with gastric mucosa was 0/6. Besides, the Ulcer index in the data set with gastric mucosa is 0.

For `COc1cc(/C=C/C(=O)CC(=O)/C=C/c2ccc(OC(=O)[C@@H](C)NC(=O)OCc3ccccc3)c(OC)c2)ccc1OC(=O)[C@@H](C)NC(=O)OCc1ccccc1` [Z-D-Ala-Cur, ((1E,6E)-3,5-dioxohepta-1,6-diene-1,7-diyl)bis(2-methoxy-4,1-phenylene) (2R,2′R)-bis(2-(((benzyloxy)carbonyl)amino)propanoate)], the MIC worked out at 0.5 µg/mL in data set [1] (setting [13]); 0.642 µM in data set [1] (setting [14]); 0.125 µg/mL in [2] (setting [15]); 0.161 µM in [2] (setting [16]); 0.5 µg/mL in [4] (18 h); 0.642 µM in data set [4]. The MIC in data set [6] (18 h) came to 0.5 µg/mL; in data set [6], 0.642 µM; in data set [7] (setting [17]) it was 1 µg/mL; in data set [7] (setting [18]), 1.28 µM. Besides, the IC50 in data set [3] was > 100 µM; in [9], > 100 µM; in data set [10], > 100 µM; in data set [11], 73 µM; in [12], > 100 µM. Moreover, the “Potency (%): % inhibition of nitric oxide production relative to lipopolysaccharide-stimulated macrophages” value in [5] is 35.45%. In data set [5], the “Nitric oxide … (average ± SD)” value came to 17.63 ± 0.92 µM. In data set [8], the “Stimulation Index (average ± SD)” value is 1.59 ± 0.14. In the data set on gastric mucosa, the “% Incidence of ulcer divided by 10” value turned out to be 0. In the data set with gastric mucosa, the “Average of ulcer number” value stood at 0. In addition, the “Average severity of ulcer” value with gastric mucosa was found to be 0. For the same compound, the “Number of animals with ulcer” value in the data set on gastric mucosa is given as 0/6. Also, in the data set with gastric mucosa, the Ulcer index came out at 0.

Consider `COc1cc(/C=C/C(=O)CC(=O)/C=C/c2ccc(OC(=O)[C@@H](CCSC)NC(=O)OCc3ccccc3)c(OC)c2)ccc1OC(=O)[C@@H](CCSC)NC(=O)OCc1ccccc1` [Z-D-Met-Cur, ((1E,6E)-3,5-dioxohepta-1,6-diene-1,7-diyl)bis(2-methoxy-4,1-phenylene) (2R,2′R)-bis(2-(((benzyloxy)carbonyl)amino)-4-(methylthio)butanoate)], for which the MIC turned out to be 0.125 µg/mL in data set [1] (setting [13]); 0.139 µM in data set [1] (setting [14]); 0.125 µg/mL in data set [2] (setting [15]); 0.139 µM in [2] (setting [16]); 0.125 µg/mL in data set [4] (18 h); 0.139 µM in [4]. Also, the MIC is 0.5 µg/mL in data set [6] (18 h), 0.556 µM in [6], 1 µg/mL in [7] (setting [17]) and 1.11 µM in data set [7] (setting [18]). Further, the IC50 in data set [3], in data set [9], in [10], in data set [11] and in data set [12] was > 100 µM throughout. The “Potency (%): % inhibition of nitric oxide production relative to lipopolysaccharide-stimulated macrophages” value in data set [5] is 40.84%. Also, the “Nitric oxide … (average ± SD)” value in data set [5] amounted to 16.16 ± 1.90 µM. Besides, the “Stimulation Index (average ± SD)” value in data set [8] amounted to 1.37 ± 0.29. The “% Incidence of ulcer divided by 10” value in the data set on gastric mucosa worked out at 0. For the same compound, the “Average of ulcer number” value with gastric mucosa is given as 0. The “Average severity of ulcer” value with gastric mucosa was 0. Also, the “Number of animals with ulcer” value in the data set on gastric mucosa is on record as 0/6. In addition, the Ulcer index in the data set on gastric mucosa stood at 0.

(Values after patent publication US10660967B2, “Curcumin conjugates and methods of use thereof” (priority 2016, dated 2020).)
